Source: patent publication US20090227600A1, “4-(PYRAZINE-2-YL) -PYRROLIDINE -2-CARBOXYLIC ACID COMPOUNDS AND DERIVATIVES THEREOF AS HEPATITIS C VIRUS INHIBITORS” (priority 2004, published 2009)
pIC50: −log10 of the molar value.

Biological target: T1, HCV RNA Polymerase, recombinant NS5B with C-terminal 21 amino acid deletion, genotype 1a strain H77 (Hepatitis C virus genotype 1a, UniProt P27958)
T1 construct: fused on or other part: C-terminal 6His-tag
Experiment: In vitro HCV RNA-dependent RNA polymerase inhibition assay, genotype 1a C-terminally truncated (delta21) enzyme
Assay type: biochemical, HCV genotype 1a
Details: genotype 1a delta21 NS5B enzyme; read-out: IC50 in delta-21 1a enzyme inhibition assay
Description: Incorporation of [^33P]-GMP into RNA was followed by absorption of the biotin labelled RNA polymer by streptavidin containing SPA beads. A synthetic template consisting of biotinylated 13mer-oligoG hybridised to polyrC was used as a homopolymer substrate.
a) Genotype 1a C-Terminally Truncated (delta21) Enzyme
HCV RNA Polymerase [Recombinant NS5B with C-terminal 21 amino acid deletion and C-terminal 6His-tag (Ferrari et al. J. Virol, 73(2), 1999, 1649. ‘Characterization of soluble hepatitis C virus RNA-dependent RNA polymerase expressed in Escherichia coli.’) expressed in E. coli and purified to homogeneity] was added to 25 nM final concentration. Polymerase of genotype 1a was from strain H77 (Yanagi, M., Purcell, R. H., Emerson, S. U. & Bukh, J. (1997), Proceedings of the National Academy of Sciences, USA 94, 8738-8743) containing a sequence change from valine to isoleucine at position 180.
Reaction Conditions were 25 nM enzyme, 1.5 μg/ml oligo-rG13/poly-rC and 0.2 μCi α-^33P-GTP in 0.5 μM GTP (20 Ci/mMol), 20 mM Tris pH 7.5, 23 mM NaCl, 3 mM DTT, 5 mM MgCl2, 1 mM MnCl2.
Enzyme was diluted to 500 nM concentration in 20 mM Tris-HCl, pH 7.5, 25 mM NaCl and 3 mM DTT.
4× concentrated assay buffer mix was prepared using 1M Tris-HCl, pH7.5 (1 mL), 5M NaCl (0.25 mL), 1M DTT (0.12 mL) and Water (8.63 mL), Total 10 mL.
2× concentrated first reagent was prepared using 4× concentrated assay buffer mix (5 μL), 40 u/μL RNasin (0.1 μL), 20 μg/mL polyrC/biotinylated-oligoG (1.6 μL), 500 nM enzyme (1 μL) and Water (2.3 μL), Total 10 μl/well.
2× concentrated second reagent was prepared using 1M MgCl2 (0.1 μL), 1M MnCl2 (0.02 μL), 25 μM GTP (0.4 μL), α-[^33P]-GTP (10 μCi/μL, 0.02 μL) and water (9.5 μL), Total 10 μL/well.
The assay was set up using compound (1 μL in 100% DMSO), first reagent (10 μL), and second reagent (10 μL), Total 21 μL.
The reaction was performed in a U-bottomed, white, 96-well plate. The reaction was mixed on a plate-shaker, after addition of the Enzyme, and incubated for 1 h at 22° C. After this time, the reaction was stopped by addition of 60 μL 1.5 mg/ml streptavidin SPA beads (Amersham) in 0.1 M EDTA in PBS. The beads were incubated with the reaction mixture for 1 h at 22° C. after which 100 μL 0.1 M EDTA in PBS was added. The plate was sealed, mixed centrifuged and incorporated radioactivity determined by counting in a Trilux (Wallac) or Topcount (Packard) Scintillation Counter.
After subtraction of background levels without enzyme, any reduction in the amount of radioactivity incorporated in the presence of a compound, compared to that in the absence, was taken as a measure of the level of inhibition. Ten concentrations of compounds were tested in three- or fivefold dilutions. From the counts per minute, percentage of inhibition at highest concentration tested or IC50s for the compounds were calculated using GraFit 3, GraFit 4 or GraFit 5 (Erithacus Software Ltd.) software packages or a data evaluation macro for Excel based on XLFit Software (IDBS).

T1 sequence (P27958 2421-3011 V2599I, form open): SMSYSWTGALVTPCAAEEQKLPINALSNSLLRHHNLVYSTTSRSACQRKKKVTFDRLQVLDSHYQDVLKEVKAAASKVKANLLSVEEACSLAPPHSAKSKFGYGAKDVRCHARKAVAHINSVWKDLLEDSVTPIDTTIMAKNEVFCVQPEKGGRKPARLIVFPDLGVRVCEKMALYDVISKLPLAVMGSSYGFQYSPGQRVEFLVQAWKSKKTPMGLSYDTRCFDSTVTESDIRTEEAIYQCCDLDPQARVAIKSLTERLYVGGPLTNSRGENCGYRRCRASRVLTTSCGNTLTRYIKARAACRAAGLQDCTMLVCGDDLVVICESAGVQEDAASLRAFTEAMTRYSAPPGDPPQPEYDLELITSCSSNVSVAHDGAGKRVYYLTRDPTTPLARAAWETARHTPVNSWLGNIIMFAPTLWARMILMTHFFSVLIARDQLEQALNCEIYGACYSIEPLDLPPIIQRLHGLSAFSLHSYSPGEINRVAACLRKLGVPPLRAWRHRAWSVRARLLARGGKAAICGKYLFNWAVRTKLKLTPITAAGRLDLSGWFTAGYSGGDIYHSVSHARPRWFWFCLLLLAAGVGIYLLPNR

COc1cc(C(=O)N2[C@@H](c3ncc(C)s3)[C@@H](c3cnccn3)C[C@@]2(Cc2cscn2)C(=O)O)ccc1C(C)(C)C (single isomer, unassigned; enantiomer a) [Example 16]
pIC50: > 6.82
